What is called IC50 is the midpoint of a concentration-inhibition curve.

The results in this text go back to US20100009936A1, “CHEMICAL COMPOUNDS” (PRAECIS PHARMACEUTICALS INCORPORATED, priority 2006, published 2010).

In experiment [1] the test system is C57Bl/6 mice. Kind of experiment: Lymphopenia assay in mice. In kind it is in vivo. The conditions noted are these: 10 mg/Kg oral dose, male C57Bl/6 mice, blood taken after 6 hours. As to the method:
Several of the compounds described herein were evaluated for the ability to induce lymphopenia in mice. Male C57Bl/6 mice were divided into groups of three. A control group received the 3% BSA vehicle only. The other groups received a single dose of either a specified dose of test compound in vehicle administered orally (PO) and intravenously (IV). After 6 hours, the mice were anesthetized with isoflurane and approximately 250 μL of blood was removed from the retroorbital sinus and collected in an EDTA microtainer, mixed with an anticoagulant and placed on a tilt table until complete blood count (CBC) analysis.

Experiment [2] deals with T1, S1P-1 receptor (Homo sapiens, UniProt P21453). Kind of experiment: [33P]sphingosine 1-phosphate binding assay, S1P-1 receptor. Set-up: expressed in transfected cells; host or cells: HEK 293 T cells (transient, FuGENE 6), crude membranes. The method, then:
In certain embodiments, the compounds of the invention selective for the S1P-1 receptor as compared to one or more of the other S1P receptors. For example, one set of compounds includes compounds which are selective for the S1P-1 receptor relative to the S1P-3 receptor. […] The EC50 of a compound is determined using the ^35S-GTPγS binding assay, as described in WO 03/061567, the entire contents of which are incorporated herein by reference. […] The IC50 of a compound is determined using the [^33P]sphingosine 1-phosphate binding assay, as described in Davis, M. D. et al., Sphingosine 1-Phosphate Analogs as Receptor Antagonists. J. Biol. Chem. (2005) 280:9833-9841, the entire contents of which are incorporated herein by this reference.
The terms “agonist” or “S1P-1 receptor agonist” as used herein include the compounds described herein which bind to and/or agonize the S1P-1 receptor. […] The compounds' IC50 for the S1P-1 receptor can be measured using the binding assays described in Example 13 or those described in WO 03/061567.
The ability of several of the compounds described herein to bind to the S1P-1 or S1P-3 receptor was also tested as follows.
For the membrane preparation, plasmid DNA was transfected into HEK 293 T cells using the FuGENE 6 transfection protocol (publicly available from Roche). […] Protein concentration was determined spectroscopically by Bradford protein assay. […]

The target of experiment [3] is T2, human S1P3 receptor (Homo sapiens, UniProt Q99500).
T2 construct: expressed in transfected cells; membranes
T2 sequence (Q99500 whole entry): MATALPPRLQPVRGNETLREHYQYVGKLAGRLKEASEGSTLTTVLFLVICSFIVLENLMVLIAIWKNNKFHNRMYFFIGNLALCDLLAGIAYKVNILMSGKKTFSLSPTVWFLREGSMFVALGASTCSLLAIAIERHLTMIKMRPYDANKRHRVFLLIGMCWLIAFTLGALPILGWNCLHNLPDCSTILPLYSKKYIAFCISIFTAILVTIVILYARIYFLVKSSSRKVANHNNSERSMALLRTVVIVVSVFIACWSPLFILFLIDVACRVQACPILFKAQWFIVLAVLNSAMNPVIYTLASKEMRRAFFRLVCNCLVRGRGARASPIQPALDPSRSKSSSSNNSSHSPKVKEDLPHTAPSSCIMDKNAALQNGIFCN
Kind of experiment: GTPgS assay, S1P3. To be noted: [35S]-GTPgS, membranes of RBL cells expressing human S1P3; tested as trifluoracetic acid salt; read-out: pEC50 in the S1P3 assay (converted). In kind it is biochemical. As to the method: (§1) For membrane preparations all steps were performed at 4° C. Rat hepatoma cells stably expressing the human S1P1 receptor or Rat Basophilic Leukaemia cells (RBL) stably expressing human S1P3 receptor were grown to 80% confluency before being harvested into 10 ml Phospho-Buffered Saline (PBS) and centrifuged at 1200 rpm for 5 minutes. After removal of the supernatant, the pellet was re-suspended and cells were homogenised within a glass Waring blender for 2 bursts of 15 secs in 200 mls of buffer (50 mM HEPES, […], 25 ug/ml bacitracin, 1 mM EDTA, 1 mM PMSF, 2 uM pepstatin A). The blender was plunged into ice for 5 mins after the first burst and 10-40 mins after the final burst to allow foam to dissipate. The material was then spun at 500 g for 20 mins and the supernatant spun for 36 mins at 48,000 g. The pellet was resuspended in the same buffer as above but without PMSF and pepstatin A. The material was then forced through a 0.6 mm needle, made up to the required volume, (usually ×4 the volume of the original cell pellet), aliquoted and stored frozen at −80° C. […]
(§2) After 30 minutes pre-coupling at 4° C. the bead and membrane suspension was dispensed into a white Greiner polypropylene LV384-well plate (5 ul/well), containing 0.1 ul of test compound or S1P. […] The final assay cocktail (10.1 ul) was centrifuged at 1000 rpm for 5 minutes then read immediately on a Viewlux. […]

Experiment [4] deals with T1, S1P-1 receptor. Kind of experiment: GTPgS assay, S1P1. It is filed as biochemical. Set-up: expressed in transfected cells; membranes. The conditions noted are these: [35S]-GTPgS, membranes of rat hepatoma cells expressing human S1P1; tested as trifluoracetic acid salt; read-out: pEC50 in the S1P1 assay (converted). As to the method: as §1, §2

T1 sequence (P21453 whole entry): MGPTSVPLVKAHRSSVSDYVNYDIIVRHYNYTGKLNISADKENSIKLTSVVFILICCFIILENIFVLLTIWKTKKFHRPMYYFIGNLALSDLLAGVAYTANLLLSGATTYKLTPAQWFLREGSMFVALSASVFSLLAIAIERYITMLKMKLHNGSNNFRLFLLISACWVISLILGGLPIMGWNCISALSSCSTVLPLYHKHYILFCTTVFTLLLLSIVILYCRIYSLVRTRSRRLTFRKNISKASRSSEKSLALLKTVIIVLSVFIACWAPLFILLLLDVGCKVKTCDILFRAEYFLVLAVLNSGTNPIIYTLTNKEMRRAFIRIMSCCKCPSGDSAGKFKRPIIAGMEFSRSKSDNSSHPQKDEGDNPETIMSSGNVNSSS

Take `CCCCCCCCOc1ccc(-c2nnc([C@@](C)(N)CO)s2)cc1C(F)(F)F` [(S)-2-amino-2-(5-(4-(octyloxy)-3-(trifluoromethyl)phenyl)-1,3,4-thiadiazol-2-yl)propan-1-ol]: in experiment [1], the lymphopenia is recorded as 77%.

Compound `C[C@](N)(COP(=O)(O)O)c1nnc(-c2ccc(OCCCCc3ccccc3)c(C(F)(F)F)c2)s1` had an IC50 in experiment [2] of 3.23 nM. For the compound `CCCCCCCCOc1ccc(-c2nnc([C@@](C)(N)COP(=O)(O)O)s2)cc1C(F)(F)F` [(S)-2-Amino-2-(5-(4-(octyloxy)-3-(trifluoromethyl)phenyl)-1,3,4-thiadiazol-2-yl)propyl dihydrogen phosphate], the EC50 in experiment [3] was 794 nM; in experiment [4], 0.631 nM. In experiment [1], `CCCCCCCCOc1ccc(-c2cnc([C@@](C)(N)CO)s2)cc1C(F)(F)F` [(S)-2-amino-2-(5-(4-(octyloxy)-3-(trifluoromethyl)phenyl)thiazol-2-yl)propan-1-ol] showed a lymphopenia of 75%. In the case of `CCCCCCCCOc1ccc(-c2cnc([C@@](C)(N)COP(=O)(O)O)s2)cc1C(F)(F)F` [(S)-2-amino-2-(5-(4-(octyloxy)-3-(trifluoromethyl)phenyl)thiazol-2-yl)propyl dihydrogen phosphate], the EC50 is 316 nM in experiment [3] and 3.16 nM in experiment [4].
